This note sets out measurements from patent publication US20250230172A1 (Vanqua Bio, Inc., priority 2021, published 2025).

The structures appear in SMILES notation.

For the assay, the target named is T1, GCase (Homo sapiens, UniProt P04062).
T1 construct: endogenous in cells; host or cells: HeLa cells
T1 sequence (P04062 40-536): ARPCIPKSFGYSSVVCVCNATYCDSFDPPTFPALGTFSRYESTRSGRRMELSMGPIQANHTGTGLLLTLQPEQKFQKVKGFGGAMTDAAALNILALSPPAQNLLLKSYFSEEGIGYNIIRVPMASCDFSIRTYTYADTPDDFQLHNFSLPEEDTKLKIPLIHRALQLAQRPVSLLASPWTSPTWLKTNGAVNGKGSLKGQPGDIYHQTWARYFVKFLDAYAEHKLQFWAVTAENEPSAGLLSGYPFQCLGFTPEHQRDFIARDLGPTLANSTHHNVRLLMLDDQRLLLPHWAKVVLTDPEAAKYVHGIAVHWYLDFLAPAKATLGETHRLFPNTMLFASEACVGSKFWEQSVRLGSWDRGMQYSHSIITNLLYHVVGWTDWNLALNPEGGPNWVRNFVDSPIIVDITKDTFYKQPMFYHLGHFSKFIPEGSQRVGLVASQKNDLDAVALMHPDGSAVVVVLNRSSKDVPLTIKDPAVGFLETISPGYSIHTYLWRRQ
In words: live cell PFB assay in HELA cells for activation of GCase. The class given is cell-based. Here is the method: Exemplary compounds were evaluated for activation of GCase in a live cell PFB assay in HELA cells (essentially as described in Ysselstein et al., “LRRK2 kinase activity regulates lysosomal glucocerebrosidase in neurons derived from Parkinson's disease patients” Nature Communications (2019) 10:5570). […] EC50 ranges: A: <10 μM; B: >10-50 μM; C: >50-100 μM; D: >100 μM.
As for `FC(F)Cn1ncc2ncc(N3CC[C@@H]4CN(c5cccnc5C(F)(F)F)C[C@@H]4C3)nc21` (racemic) [Compound 2, rac-3-[(3aR,7aS)-5-[1-(2,2-difluoroethyl)-1H-pyrazolo[3,4-b]pyrazin-6-yl]-octahydro-1H-pyrrolo[3,4-c]pyridin-2-yl]-2-(trifluoromethyl)pyridine], the EC50 is less than 10 µM.

Take `FC(F)Cn1ncc2ncc(NC3C[C@@H]4CN(c5ncccc5C(F)(F)F)C[C@@H]4C3)nc21` (stereo partly drawn) [Compound 41, (3aR,5S,6aS)—N-[1-(2,2-difluoroethyl)-1H-pyrazolo[3,4-b]pyrazin-6-yl]-2-[3-(trifluoromethyl)pyridin-2-yl]-octahydrocyclopenta[c]pyrrol-5-amine]: the EC50 was greater than 100 µM.

For the compound `FC(F)Cn1ncc2ncc(N3CC[C@@H]4CN(c5cnccc5C(F)(F)F)C[C@@H]4C3)nc21` (racemic) [Compound 15, rac-3-[(3aR,7aS)-5-[1-(2,2-difluoroethyl)-1H-pyrazolo[3,4-b]pyrazin-6-yl]-octahydro-1H-pyrrolo[3,4-c]pyridin-2-yl]-4-(trifluoromethyl)pyridine], the EC50 lay within 10 to 50 µM.

Take `FC(F)Cn1ncc2ncc(N[C@H]3C[C@@H]4CN(c5ccc(C(F)(F)F)nn5)C[C@@H]4C3)nc21` [Compound 82, 1-(2,2-difluoroethyl)-N-((3aR,5s,6aS)-2-(6-(trifluoromethyl)pyridazin-3-yl)octahydrocyclopenta[c]pyrrol-5-yl)-1H-pyrazolo[3,4-b]pyrazin-6-amine]: the EC50 is 10 to 50 µM.

Consider `FC(F)Cn1ncc2ncc(N[C@@H]3C[C@@H]4CN(c5ccc(C(F)(F)F)cn5)C[C@@H]4C3)nc21` [Compound 51, (3aR,5S,6aS)—N-[1-(2,2-difluoroethyl)-1H-pyrazolo[3,4-b]pyrazin-6-yl]-2-[5-(trifluoromethyl)pyridin-2-yl]-octahydrocyclopenta[c]pyrrol-5-amine], for which the EC50 is less than 10 µM.

Take `O=C(c1ccc2cc[nH]c2c1)N1CCN2C[C@H](Oc3cccnc3C(F)(F)F)C[C@H]2C1` [Compound 28, 6-[(7R,8aS)-7-{[2-(trifluoromethyl)pyridin-3-yl]oxy}-octahydropyrrolo[1,2-a]pyrazine-2-carbonyl]-1H-indole]: the concentration giving a half-maximal response (EC50) fell in the range of 10 to 50 µM.

The compound `FC(F)(F)Cn1ncc2ncc(N3CC[C@@H]4CN(c5cc(C(F)(F)F)ccn5)C[C@@H]4C3)nc21` (racemic) [Compound 13] showed a concentration for a half-maximal effect (EC50) of 10 to 50 µM.

With `COc1cncc(N2C[C@H]3C[C@H](Nc4cnc5cnn(CC(F)F)c5n4)C[C@H]3C2)n1` [Compound 76, 1-(2,2-difluoroethyl)-N-((3aR,5s,6aS)-2-(6-methoxypyrazin-2-yl)octahydrocyclopenta[c]pyrrol-5-yl)-1H-pyrazolo[3,4-b]pyrazin-6-amine], the EC50 is 10 to 50 µM.

Compound `FC(F)Cn1ncc2ncc(N3C[C@@H]4CCN(c5cc(C(F)(F)F)ccn5)[C@@H]4C3)nc21` (racemic) [Compound 60, rac-2-[(3aR,6aR)-5-[1-(2,2-difluoroethyl)-1H-pyrazolo[3,4-b]pyrazin-6-yl]-octahydropyrrolo[2,3-c]pyrrol-1-yl]-4-(trifluoromethyl)pyridine] came in with an EC50 of 10 to 50 µM.

The compound `FC(F)Cn1ncc2ncc(-n3cc4c(n3)CCN(c3ncccc3C(F)(F)F)C4)nc21` [Compound 63, 1-(2,2-difluoroethyl)-6-(5-(3-(trifluoromethyl)pyridin-2-yl)-4,5,6,7-tetrahydro-2H-pyrazolo[4,3-c]pyridin-2-yl)-1H-pyrazolo[3,4-b]pyrazine] showed an EC50 of less than 10 µM.

Regarding `FC(F)Cn1ncc2ncc(N3CC[C@H]4CN(c5cc(C(F)(F)F)ccn5)C[C@H]43)nc21` (racemic) [Compound 58, rac-2-[(3aR,6aR)-1-[1-(2,2-difluoroethyl)-1H-pyrazolo[3,4-b]pyrazin-6-yl]-octahydropyrrolo[3,4-b]pyrrol-5-yl]-4-(trifluoromethyl)pyridine], the EC50 is 10 to 50 µM.

On to `FC(F)Cn1ncc2ncc(N3CC[C@@H]4CN(c5cc(C(F)(F)F)ccn5)C[C@@H]4C3)nc21` (racemic) [Compound 3], for which the EC50 is less than 10 µM.

Usually EC50 stands for the concentration needed to bring the measured effect to its halfway point. A lower EC50 goes with greater potency.
